Measurements published in US11958832B1, “2-alkoxy[4,3:6,3-terpyridine]-3-carbonitriles as antimicrobial compounds” (KING FAISAL UNIVERSITY, priority 2023, dated 2024).

Experiments:
Type in all cases: cell-based
[1] = system: Staphylococcus aureus; experiment: Agar plate disc-diffusion, antibacterial inhibition zone; conditions: nutrient agar, 37° C., 48 hours, DMSO zone subtracted; for inhibition zone, Staphylococcus aureus, A: A = concentration of comp. = 10,000 μL; for inhibition zone, Staphylococcus aureus, B: B = concentration of comp. = 30,000 μL; for inhibition zone, Staphylococcus aureus, C: C = concentration of comp. = 50,000 μL
Protocol: The agar plate disc-diffusion method was applied. […] The discs were then placed onto the surface of agar plates (nutrient agar for bacteria and Sabouraud's dextrose agar for fungi) seeded with the test organism. Each plate contained 15 mL of the agar medium, previously seeded with 0.2 mL of the broth culture of each organism pregrown for 18 h. The plates were incubated at 37° C. for 48 hours, and 72 hours for fungi. The inhibition zones were measured in mm. Discs impregnated with DMSO were used as a control, and its inhibition zone was subtracted from the tested compound actual inhibition zone.

[2] = system: Escherichia coli; experiment: as above; conditions: nutrient agar, 37° C., 48 hours, DMSO zone subtracted; for inhibition zone, Escherichia coli, A: A = concentration of comp. = 10,000 μL; for inhibition zone, Escherichia coli, B: B = concentration of comp. = 30,000 μL; for inhibition zone, Escherichia coli, C: C = concentration of comp. = 50,000 μL
Protocol: (§1) The agar plate disc-diffusion method was applied. Sterilized filter papers (6 mm in diameter) were wetted with 10 μL of a solution of compounds 2-ethoxy[4,3:6,3-terpyridine]-3-carbonitrile 4 and/or 2-methoxy[4,3:6,3-terpyridine]-3-carbonitrile 5 to be tested, […], and the discs were allowed to air dry. The discs were then placed onto the surface of agar plates (nutrient agar for bacteria and Sabouraud's dextrose agar for fungi) seeded with the test organism. Each plate contained 15 mL of the agar medium, previously seeded with 0.2 mL of the broth culture of each organism pregrown for 18 h. The plates were incubated at 37° C. for 48 hours, and 72 hours for fungi. The inhibition zones were measured in mm. Discs impregnated with DMSO were used as a control, and its inhibition zone was subtracted from the tested compound actual inhibition zone.

[3] = system: Pseudomonas aeruginosa; experiment: as above; conditions: nutrient agar, 37° C., 48 hours, DMSO zone subtracted; for inhibition zone, Pseudomonas aeruginosa, A: A = concentration of comp. = 10,000 μL; for inhibition zone, Pseudomonas aeruginosa, B: B = concentration of comp. = 30,000 μL; for inhibition zone, Pseudomonas aeruginosa, C: C = concentration of comp. = 50,000 μL
Protocol: as §1

[4] = system: Bacillus cereus; experiment: as above; conditions: nutrient agar, 37° C., 48 hours, DMSO zone subtracted; for inhibition zone, Bacillus Cereus, A: A = concentration of comp. = 10,000 μL; for inhibition zone, Bacillus Cereus, B: B = concentration of comp. = 30,000 μL; for inhibition zone, Bacillus Cereus, C: C = concentration of comp. = 50,000 μL
Protocol: as §1

[5] = system: Chrysosporium keratinophilum; experiment: Agar plate disc-diffusion, antifungal inhibition zone; conditions: Sabouraud's dextrose agar, 37° C., 72 hours, DMSO zone subtracted; for inhibition zone, Chrysosporium keratinophilum, A: A = concentration of comp. = 10,000 μL; for inhibition zone, Chrysosporium keratinophilum, B: B = concentration of comp. = 30,000 μL; for inhibition zone, Chrysosporium keratinophilum, C: C = concentration of comp. = 50,000 μL
Protocol: as §1

[6] = system: Aspergillus flavus; experiment: as above; conditions: Sabouraud's dextrose agar, 37° C., 72 hours, DMSO zone subtracted; for inhibition zone, Aspergillus flavus, A: A = concentration of comp. = 10,000 μL; for inhibition zone, Aspergillus flavus, B: B = concentration of comp. = 30,000 μL; for inhibition zone, Aspergillus flavus, C: C = concentration of comp. = 50,000 μL
Protocol: as §1

SMILES | inhibition zone, Staphylococcus aureus, A [1] [mm] | inhibition zone, Staphylococcus aureus, B [1] [mm] | inhibition zone, Staphylococcus aureus, C [1] [mm] | inhibition zone, Escherichia coli, A [2] [mm] | inhibition zone, Escherichia coli, B [2] [mm] | inhibition zone, Escherichia coli, C [2] [mm] | inhibition zone, Pseudomonas aeruginosa, A [3] [mm] | inhibition zone, Pseudomonas aeruginosa, B [3] [mm] | inhibition zone, Pseudomonas aeruginosa, C [3] [mm] | inhibition zone, Bacillus Cereus, A [4] [mm] | inhibition zone, Bacillus Cereus, B [4] [mm] | inhibition zone, Bacillus Cereus, C [4] [mm] | inhibition zone, Chrysosporium keratinophilum, A [5] [mm] | inhibition zone, Chrysosporium keratinophilum, B [5] [mm] | inhibition zone, Chrysosporium keratinophilum, C [5] [mm] | inhibition zone, Aspergillus flavus, A [6] [mm] | inhibition zone, Aspergillus flavus, B [6] [mm] | inhibition zone, Aspergillus flavus, C [6] [mm]
COc1nc(-c2cccnc2)cc(-c2cccnc2)c1C#N [Compound 5, 2-methoxy[4,3:6,3-terpyridine]-3-carbonitrile] | 19 | 28 | 34 | 28 | 38 | 50 | 24 | 32 | 38 | 26 | 28 | 38 | 27 | 29 | 48 | 25 | 27 | 38
CCOc1nc(-c2cccnc2)cc(-c2cccnc2)c1C#N [Compound 4, 2-ethoxy[4,3:6,3-terpyridine]-3-carbonitrile] | 18 | 22 | 34 | 27 | 37 | 48 | 24 | 29 | 39 | 24 | 27 | 35 | 24 | 27 | 40 | 21 | 25 | 35
